How the values were obtained:
[1] = tested on: CYPSE (Cyperus serotinus); assay: Flooded paddy, preemergence weed control; format: in vivo, Rottb.; conditions: rated 3-4 weeks after treatment, 0-9 rating scale
Procedure, shortened: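 Herbicidal effect was scored visually on a 0–9 scale against an untreated control 3–4 weeks after treatment. Compounds were applied preemergence as 50/50 v/v aqueous/acetone mixtures into flood water (1.5–3 cm deep over silt loam), at roughly 0.0080 to 0.1250 kg/ha active ingredient.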

ORYSAT (Rice, Tebonnet) [2] = assay: Postemergence herbicidal evaluation; format: in vivo, Oryza sativa, (L.) Tebonnet; conditions: for ORYSAT herbicidal rating: postemergence
Procedure, shortened: (§1)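 Seedlings grown about two weeks in flats, sprayed, then kept under standard greenhouse care. Rated visually 4–5 weeks after treatment on a 0–9 scale (stand, vigour, malformation, size, chlorosis, overall appearance) relative to untreated control; repeat tests averaged.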

[3] = tested on: ECHCG (Echinochloa crus-galli); assay: Postemergence herbicidal evaluation; format: in vivo, (L.) Beau; conditions: for ECHCG herbicidal rating: postemergence
Procedure, shortened: as §1

ZEAMX (Corn, Field) = assay: Postemergence herbicidal evaluation; format: in vivo, Zea mays, L.; conditions: for ZEAMX herbicidal rating: postemergence
Procedure, shortened: as §1

[4] = tested on: ECHCG (Echinochloa crus-galli); assay: Preemergence herbicidal evaluation; format: in vivo, (L.) Beau; conditions: rated 4-5 weeks after treatment
Procedure, shortened: (§2)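 Visual 0–9 rating versus control (stand, vigor, malformation, size, chlorosis, overall appearance), scored four to five weeks post-treatment. Preemergence spray of aqueous acetone solution onto freshly seeded soil cups; plants grown under conventional greenhouse care.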

SETVI (Setaria viridis) [5] = assay: Preemergence herbicidal evaluation; format: in vivo, (L.) Beau; conditions: rated 4-5 weeks after treatment
Procedure, shortened: as §2

[6] = tested on: IPOHE (Ipomoea hederacea); assay: Postemergence herbicidal evaluation; format: in vivo, (L.) Jacq.; conditions: for IPOHE herbicidal rating: postemergence
Procedure, shortened: as §1

[7] = tested on: TRZAWR (Wheat, Winter, cv Riband); assay: Postemergence herbicidal evaluation; format: in vivo, Triticum aestivum; conditions: for TRZAWR herbicidal rating: postemergence
Procedure, shortened: as §1

GALAP (Galium aparine) = assay: Preemergence herbicidal evaluation; format: in vivo; conditions: rated 4-5 weeks after treatment
Procedure, shortened: as §2

[8] = tested on: AMBEL (Ambrosia artemisifolia); assay: Preemergence herbicidal evaluation; format: in vivo, L.; conditions: rated 4-5 weeks after treatment
Procedure, shortened: as §2

[9] = tested on: CHEAL (Chenopodium album); assay: Preemergence herbicidal evaluation; format: in vivo, L.; conditions: rated 4-5 weeks after treatment
Procedure, shortened: as §2

[10] = tested on: CASOB (Cassia obtusifolia); assay: Preemergence herbicidal evaluation; format: in vivo, L.; conditions: rated 4-5 weeks after treatment
Procedure, shortened: as §2

[11] = tested on: ABUTH (Abutilon theophrasti); assay: Preemergence herbicidal evaluation; format: in vivo, Medic.; conditions: rated 4-5 weeks after treatment
SETVI (Setaria viridis) [12] = assay: Postemergence herbicidal evaluation; format: in vivo, (L.) Beau; conditions: for SETVI herbicidal rating: postemergence
Procedure, shortened: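 First, seedlings are raised in flats for about two weeks. Next, compound dispersed in 50/50 acetone/water with 0.5% TWEEN 20 is sprayed at 40 psi to deliver about 0.0040–1.000 kg/ha. Plants are then maintained in the greenhouse and rated 0-9 after four to five weeks.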

[13] = tested on: ECHORC (Echinochloa oryzoides); assay: Flooded paddy, preemergence weed control; format: in vivo, Echinochloa oryzoides (Ard.) Fritsch.; conditions: rated 3-4 weeks after treatment, 0-9 rating scale
Procedure, shortened: (§3)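 Flooded silt loam pots, seeds in upper 0.5 cm, water held 1.5–3 cm deep; greenhouse; visual 0-9 score vs control.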

ORYSAT (Rice, Tebonnet) [14] = assay: Preemergence herbicidal evaluation; format: in vivo, Oryza sativa, (L.) Tebonnet; conditions: rated 4-5 weeks after treatment
[15] = tested on: MOOVA (Monochoria vaginalis); assay: Flooded paddy, preemergence weed control; format: in vivo, Presl.; conditions: rated 3-4 weeks after treatment, 0-9 rating scale
Procedure, shortened: as §3

[16] = tested on: GLXMAW (Soybean, Williams); assay: Postemergence herbicidal evaluation; format: in vivo, Glycine max, (L.) Merr. cv Williams; conditions: for GLXMAW herbicidal rating: postemergence
Procedure, shortened: as §1

[17] = tested on: TRZAWR (Wheat, Winter, cv Riband); assay: Preemergence herbicidal evaluation; format: in vivo, Triticum aestivum; conditions: rated 4-5 weeks after treatment
Procedure, shortened: as §2

Cn1c(C(F)(F)F)cc(=O)n(-c2ccc3snc(C4OCCCS4)c3c2)c1=O (stereo not drawn) [Compound 34, 1-methyl-3-[3-(1,3-oxathian-2-yl)-1,2-benzisothiazol-5-yl]-6-(trifluoromethyl)uracil]
herbicidal rating, CYPSE ([1]; rate 0.0620 kg/ha): 9.0 | herbicidal rating, CYPSE ([1]; rate 0.1250 kg/ha): 9.0 | ORYSAT herbicidal rating (ORYSAT (Rice, Tebonnet) [2]; rate 0.0320 kg/ha): 5.5 | ORYSAT herbicidal rating (ORYSAT (Rice, Tebonnet) [2]; rate 0.0620 kg/ha): 6.5 | Postemergence herbicidal rating, ORYSAT (ORYSAT (Rice, Tebonnet) [2]; rate 0.0320 kg/ha): 7.0 | Postemergence herbicidal rating, ORYSAT (ORYSAT (Rice, Tebonnet) [2]; rate 0.0620 kg/ha): 7.0 | ECHCG herbicidal rating ([3]; rate 0.0320 kg/ha): 3.0 | ECHCG herbicidal rating ([3]; rate 0.0620 kg/ha): 4.0 | Postemergence herbicidal rating, ECHCG ([3]; rate 0.0320 kg/ha): 4.0 | Postemergence herbicidal rating, ECHCG ([3]; rate 0.0620 kg/ha): 6.0 | ZEAMX herbicidal rating (ZEAMX (Corn, Field); rate 0.0320 kg/ha): 5.0 | ZEAMX herbicidal rating (ZEAMX (Corn, Field); rate 0.0620 kg/ha): 7.0 | Postemergence herbicidal rating, ZEAMX (ZEAMX (Corn, Field); rate 0.0320 kg/ha): 6.0 | Postemergence herbicidal rating, ZEAMX (ZEAMX (Corn, Field); rate 0.0620 kg/ha): 7.0 | ECHCG preemergence herbicidal rating ([4]; Rate 0.0620 kg/ha): 7.0 | Preemergence herbicidal rating ECHCG ([4]; Rate 0.0620 kg/ha): 9.0 | ECHCG preemergence herbicidal rating ([4]; Rate 0.1250 kg/ha): 8.0 | Preemergence herbicidal rating ECHCG ([4]; Rate 0.1250 kg/ha): 9.0 | ECHCG preemergence herbicidal rating ([4]; Rate 0.2500 kg/ha): 9.0 | Preemergence herbicidal rating ECHCG ([4]; Rate 0.2500 kg/ha): 9.0 | SETVI preemergence herbicidal rating (SETVI (Setaria viridis) [5]; Rate 0.0620 kg/ha): 9.0 | Preemergence herbicidal rating SETVI (SETVI (Setaria viridis) [5]; Rate 0.0620 kg/ha): 9.0 | SETVI preemergence herbicidal rating (SETVI (Setaria viridis) [5]; Rate 0.1250 kg/ha): 9.0 | Preemergence herbicidal rating SETVI (SETVI (Setaria viridis) [5]; Rate 0.1250 kg/ha): 9.0 | SETVI preemergence herbicidal rating (SETVI (Setaria viridis) [5]; Rate 0.2500 kg/ha): 9.0 | Preemergence herbicidal rating SETVI (SETVI (Setaria viridis) [5]; Rate 0.2500 kg/ha): 9.0 | IPOHE herbicidal rating ([6]; rate 0.0320 kg/ha): 9.0 | IPOHE herbicidal rating ([6]; rate 0.0620 kg/ha): 9.0 | Postemergence herbicidal rating, IPOHE ([6]; rate 0.0320 kg/ha): 9.0 | Postemergence herbicidal rating, IPOHE ([6]; rate 0.0620 kg/ha): 9.0 | TRZAWR herbicidal rating ([7]; rate 0.0320 kg/ha): 4.0 | TRZAWR herbicidal rating ([7]; rate 0.0620 kg/ha): 6.5 | Postemergence herbicidal rating, TRZAWR ([7]; rate 0.0320 kg/ha): 5.5 | Postemergence herbicidal rating, TRZAWR ([7]; rate 0.0620 kg/ha): 5.5 | GALAP preemergence herbicidal rating (GALAP (Galium aparine); Rate 0.0620 kg/ha): 5.0 | Preemergence herbicidal rating GALAP (GALAP (Galium aparine); Rate 0.0620 kg/ha): 9.0 | GALAP preemergence herbicidal rating (GALAP (Galium aparine); Rate 0.1250 kg/ha): 9.0 | Preemergence herbicidal rating GALAP (GALAP (Galium aparine); Rate 0.1250 kg/ha): 9.0 | GALAP preemergence herbicidal rating (GALAP (Galium aparine); Rate 0.2500 kg/ha): 9.0 | Preemergence herbicidal rating GALAP (GALAP (Galium aparine); Rate 0.2500 kg/ha): 9.0 | AMBEL preemergence herbicidal rating ([8]; Rate 0.0620 kg/ha): 9.0 | Preemergence herbicidal rating AMBEL ([8]; Rate 0.0620 kg/ha): 9.0 | AMBEL preemergence herbicidal rating ([8]; Rate 0.1250 kg/ha): 9.0 | Preemergence herbicidal rating AMBEL ([8]; Rate 0.1250 kg/ha): 9.0 | AMBEL preemergence herbicidal rating ([8]; Rate 0.2500 kg/ha): 9.0 | Preemergence herbicidal rating AMBEL ([8]; Rate 0.2500 kg/ha): 9.0 | CHEAL preemergence herbicidal rating ([9]; Rate 0.0620 kg/ha): 9.0 | Preemergence herbicidal rating CHEAL ([9]; Rate 0.0620 kg/ha): 9.0 | CHEAL preemergence herbicidal rating ([9]; Rate 0.1250 kg/ha): 9.0 | Preemergence herbicidal rating CHEAL ([9]; Rate 0.1250 kg/ha): 9.0 | CHEAL preemergence herbicidal rating ([9]; Rate 0.2500 kg/ha): 9.0 | Preemergence herbicidal rating CHEAL ([9]; Rate 0.2500 kg/ha): 9.0 | CASOB preemergence herbicidal rating ([10]; Rate 0.0620 kg/ha): 5.0 | Preemergence herbicidal rating CASOB ([10]; Rate 0.0620 kg/ha): 2.5 | CASOB preemergence herbicidal rating ([10]; Rate 0.1250 kg/ha): 9.0 | Preemergence herbicidal rating CASOB ([10]; Rate 0.1250 kg/ha): 3.0 | CASOB preemergence herbicidal rating ([10]; Rate 0.2500 kg/ha): 9.0 | Preemergence herbicidal rating CASOB ([10]; Rate 0.2500 kg/ha): 4.5 | ABUTH preemergence herbicidal rating ([11]; Rate 0.0620 kg/ha): 9.0 | Preemergence herbicidal rating ABUTH ([11]; Rate 0.0620 kg/ha): 9.0 | ABUTH preemergence herbicidal rating ([11]; Rate 0.1250 kg/ha): 9.0 | Preemergence herbicidal rating ABUTH ([11]; Rate 0.1250 kg/ha): 9.0 | ABUTH preemergence herbicidal rating ([11]; Rate 0.2500 kg/ha): 9.0 | Preemergence herbicidal rating ABUTH ([11]; Rate 0.2500 kg/ha): 9.0 | SETVI herbicidal rating (SETVI (Setaria viridis) [12]; rate 0.0320 kg/ha): 9.0 | SETVI herbicidal rating (SETVI (Setaria viridis) [12]; rate 0.0620 kg/ha): 9.0 | Postemergence herbicidal rating, SETVI (SETVI (Setaria viridis) [12]; rate 0.0320 kg/ha): 6.0 | Postemergence herbicidal rating, SETVI (SETVI (Setaria viridis) [12]; rate 0.0620 kg/ha): 8.0 | herbicidal rating, ECHORC ([13]; rate 0.0320 kg/ha): 9.0 | herbicidal rating, ECHORC ([13]; rate 0.0620 kg/ha): 8.0 | herbicidal rating, ECHORC ([13]; rate 0.1250 kg/ha): 9.0 | ORYSAT preemergence herbicidal rating (ORYSAT (Rice, Tebonnet) [14]; Rate 0.0620 kg/ha): 5.5 | Preemergence herbicidal rating ORYSAT (ORYSAT (Rice, Tebonnet) [14]; Rate 0.0620 kg/ha): 3.0 | ORYSAT preemergence herbicidal rating (ORYSAT (Rice, Tebonnet) [14]; Rate 0.1250 kg/ha): 8.0 | Preemergence herbicidal rating ORYSAT (ORYSAT (Rice, Tebonnet) [14]; Rate 0.1250 kg/ha): 4.5 | ORYSAT preemergence herbicidal rating (ORYSAT (Rice, Tebonnet) [14]; Rate 0.2500 kg/ha): 9.0 | Preemergence herbicidal rating ORYSAT (ORYSAT (Rice, Tebonnet) [14]; Rate 0.2500 kg/ha): 5.5 | herbicidal rating, MOOVA ([15]; rate 0.0320 kg/ha): 9.0 | herbicidal rating, MOOVA ([15]; rate 0.0620 kg/ha): 9.0 | herbicidal rating, MOOVA ([15]; rate 0.1250 kg/ha): 9.0 | GLXMAW herbicidal rating ([16]; rate 0.0320 kg/ha): 6.5 | GLXMAW herbicidal rating ([16]; rate 0.0620 kg/ha): 6.5 | Postemergence herbicidal rating, GLXMAW ([16]; rate 0.0320 kg/ha): 9.0 | Postemergence herbicidal rating, GLXMAW ([16]; rate 0.0620 kg/ha): 9.0 | TRZAWR preemergence herbicidal rating ([17]; Rate 0.0620 kg/ha): 5.0 | Preemergence herbicidal rating TRZAWR ([17]; Rate 0.0620 kg/ha): 5.0 | TRZAWR preemergence herbicidal rating ([17]; Rate 0.1250 kg/ha): 7.0 | Preemergence herbicidal rating TRZAWR ([17]; Rate 0.1250 kg/ha): 5.0 | TRZAWR preemergence herbicidal rating ([17]; Rate 0.2500 kg/ha): 8.0 | Preemergence herbicidal rating TRZAWR ([17]; Rate 0.2500 kg/ha): 7.0

From patent US6706663B2, “Herbicidal 3-heterocyclic substituted benzisothiazole and benzisoxazole compounds” (Wyeth, priority 2000, dated 2004)
